Source: publication PMC9504018, “The hEag1 K^+ Channel Inhibitor Astemizole Stimulates Ca^2+ Deposition in SaOS-2 and MG-63 Osteosarcoma Cultures” (International Journal of Molecular Sciences, 2022)

Molecular target: T1, hEag1 (Kv10.1) (Homo sapiens, UniProt O95259)
T1 construct: gene KCNH1
T1 sequence (O95259 1-989): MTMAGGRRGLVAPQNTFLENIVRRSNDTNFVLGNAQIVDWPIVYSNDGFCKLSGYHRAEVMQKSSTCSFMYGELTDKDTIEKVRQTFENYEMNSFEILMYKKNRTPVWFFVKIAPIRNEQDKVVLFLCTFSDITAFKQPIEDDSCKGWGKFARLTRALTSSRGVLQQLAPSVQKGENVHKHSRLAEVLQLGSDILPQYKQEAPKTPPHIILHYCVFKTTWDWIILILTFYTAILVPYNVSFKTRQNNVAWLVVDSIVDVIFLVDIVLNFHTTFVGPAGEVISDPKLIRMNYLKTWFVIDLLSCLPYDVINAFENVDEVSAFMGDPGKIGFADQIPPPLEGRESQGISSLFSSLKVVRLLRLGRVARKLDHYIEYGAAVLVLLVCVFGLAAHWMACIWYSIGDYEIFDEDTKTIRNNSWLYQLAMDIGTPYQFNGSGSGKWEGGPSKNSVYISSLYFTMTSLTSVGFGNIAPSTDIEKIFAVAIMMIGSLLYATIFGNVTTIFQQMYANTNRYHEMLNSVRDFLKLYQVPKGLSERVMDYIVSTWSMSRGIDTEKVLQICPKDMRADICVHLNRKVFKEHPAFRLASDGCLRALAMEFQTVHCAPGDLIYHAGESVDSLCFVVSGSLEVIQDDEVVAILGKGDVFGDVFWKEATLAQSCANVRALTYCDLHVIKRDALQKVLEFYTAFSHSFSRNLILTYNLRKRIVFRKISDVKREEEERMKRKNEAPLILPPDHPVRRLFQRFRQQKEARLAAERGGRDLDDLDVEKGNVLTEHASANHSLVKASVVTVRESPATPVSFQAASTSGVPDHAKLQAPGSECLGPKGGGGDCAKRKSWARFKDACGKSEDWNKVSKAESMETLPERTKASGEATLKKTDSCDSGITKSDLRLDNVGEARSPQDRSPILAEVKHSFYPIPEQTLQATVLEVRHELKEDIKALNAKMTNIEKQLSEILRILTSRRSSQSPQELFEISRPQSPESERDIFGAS
Assay: whole-cell patch clamp of the endogenous current in SaOS-2 cells, six-dose concentration-response
Format: cell-based

COc1ccc(CCN2CCC(Nc3nc4ccccc4n3Cc3ccc(F)cc3)CC2)cc1 [astemizole]
IC50: ~135 nM
